The target in assay [1] is T1, rat lens aldose reductase (rAR) (Rattus norvegicus, UniProt P07943).
T1 construct: The rat lens homogenate was prepared according to the method of Hayman and Kinoshita with some modifications; from tissue; host or cells: lenses of Sprague-Dawley rats (homogenate supernatant)
Briefly: Rat lens aldose reductase (rAR) inhibition, DL-glyceraldehyde substrate, NADPH decrease at 340 nm. The assay is classed as biochemical. On the procedure:
The rat lens homogenate was prepared according to the method of Hayman and Kinoshita with some modifications. Non-cataractous transparent lenses were pooled and homogenate was prepared in 0.1 M phosphate buffer saline (pH 6.2). After centrifugation at 10,000 rpm for 20 min in a refrigerated centrifuge, the supernatant, which was then collected and as the rAR, all procedures were carried out at 4 °C.
Each 1.0 mL cuvette contained equal units of the enzyme, 0.10 M sodium phosphate buffer (pH 6.2), 0.3 mM NADPH, with or without 10 mM of the substrate and an inhibitor [10, 36].

In assay [2] the target is T2, recombinant human aldose reductase (rhAR) (Homo sapiens, UniProt P15121).
T2 construct: purchased Wako Pure Chemical Industries (Osaka, Japan)
Put plainly: Kinetic analysis of aldose reductase inhibition (Lineweaver-Burk plots). The assay is classed as biochemical. Here is the method: Reaction mixtures consisted of 0.1 M potassium phosphate, 0.16 mM NADPH, […] of recombinant human aldose reductase (rhAR) with varied concentrations of substrate DL-glyceraldehyde and AR inhibitor in a total volume of 200 µL. Concentrations were ranged from 0.1 to 1 mM for DL-glyceraldehyde, from 0.1 to 1 mM for active compound. Recombinant human aldose reductase activity was assayed spectrophotometrically by measuring the decrease in absorption of NADPH at 340 nm after substrate addition using a Bio Tek Power Wave XS spectrophotometer (Bio Tek Instruments, Winooski, VT, USA).

The test system of another assay is rat erythrocyte. Put plainly: Galactitol accumulation in rat erythrocytes incubated with galactose. The class given is cell-based. The conditions noted are these: 30 mM galactose. Here is the method: Blood sample was collected in heparin containing polypropylene tube from 10-week-old male rats. For sugar and sugar alcohol analysis, erythrocytes from heparinized blood were separated from the plasma and buffy coat by centrifuging at 2000× g for 10 min. The cells were washed thrice with normal saline (0.9% NaCl) at 4 °C. In the final washing, the cells were centrifuged at 2000× g for 10 min to obtain a consistently packed cell preparation. The packed cells (1 mL) were then incubated in a Krebs-Ringer bicarbonate buffer (pH 7.4) containing 30 mM galactose in the presence or absence of samples at 37 °C in 5% CO2 for 3 h. The erythrocytes were washed with cold saline by centrifuging at 2000× g for 10 min, precipitated by adding 6% of cold perchloric acid (3 mL), and centrifuged again at 2000× g for 10 min. The supernatant was neutralized with 2.5 M K2CO3 at 4 °C and used for galactitol determination. HPLC analysis for sugar and sugar alcohol in blood was performed with this supernatant of red blood cell homogenate after being benzoylated.

The next assay has as its system rat lenses. Put plainly: Galactitol accumulation in cultured isolated rat lenses (ex vivo). The class given is cell-based. Here is the method:
Lenses isolated from 10-week-old male rats were cultured for 6 days in TC-199 medium that contained 15% fetal bovine serum 100 units/mL penicillin and 0.1 mg/mL streptomycin under sterile conditions in an atmosphere of 5% CO2 and 95% air at 37 °C. Samples were dissolved in dimethyl sulfoxide. The lenses were divided into five groups and cultured in medium containing 5 mM glucose, 30 mM galactose and rosmarinic acid or caffeic acid ethylene ester. Each lens was placed in well containing 1.0 mL of medium. Galactitol was determined by HPLC after its derivatization by reaction with benzoic acid to a fluorescent compound [37].

Assay [3] can be described thus: ABTS^+ radical assay (antioxidant). The note with it: Table 5. On the procedure:
The method of Re et al., [39] was used with slight modifications. ABTS diammonium salt (2 mM) and potassium persulfate (3.5 mM) were mixed, diluted in distilled water and kept in the dark at room temperature for 24 h before use. After addition of ABTS^+ solution to 10 µL of antioxidant compounds were recorded at after 10 min reaction. […] Trolox was used as positive control.

The record followed here is publication PMC6271131, “Inhibitory Effects of Colocasia esculenta (L.) Schott Constituents on Aldose Reductase” (Molecules, 2014).

Structures are written as SMILES. ≈ marks a conversion by molar mass, not a printed value.

Take `O=c1cc(-c2ccc(O)c(O)c2)oc2cc(O)c([C@@H]3O[C@H](CO)[C@@H](O)[C@H](O)[C@H]3O)c(O)c12` [Compound 3, isoorientin]: the 50% inhibitory concentration (IC50) is 1.92 µM in assay [1] (IC50 (rAR), isolated constituents, Table 2 experiment) and 14.6 ± 1.18 µM in assay [3]. In addition, the inhibition at 0.5 µg/mL in assay [1] (Table 2, 0.5 µg/mL, read-out: Inhibition (%) of rAR) was found to be 37.23 ± 0.37%. The inhibition at 1 µg/mL in assay [1] (Table 2, 1 µg/mL, read-out: Inhibition (%) of rAR) was found to be 57.6 ± 0.58%. The inhibition at 5 µg/mL in assay [1] (Table 2, 5 µg/mL) stood at 77.73 ± 0.77%; with rat lenses (Rattus norvegicus, 144 h, 5 µg/mL, 30 mM galactose, 6 days, read-out: inhibition of galactitol accumulation in isolated rat lenses), 2.7%. Further, the type of inhibition entry in assay [2] (Lineweaver-Burk plots, Km unchanged, Vmax decreased) is on record as “noncompetitive inhibitors”. In addition, in assay [2] (from secondary Lineweaver-Burk plots, DL-glyceraldehyde 0.1-1 mM, read-out: inhibitory constant (Ki)), the Ki is 5.88 µM. Also, the “Rat Erythrocyte Galactitol Content” value in the assay with rat erythrocyte (5 µg/mL compound, control 86.70 ± 1.61) amounted to 56.18 ± 1.00 µM. Further, the “decrease of galactitol accumulation in rat erythrocyte” value with rat erythrocyte (5 µg/mL) was determined as 35.2%. For the same molecule, the “Galactitol Content µg/lens Wet Weight (g)” value in the assay on rat lenses (5 µg/mL compound, 30 mM galactose, 6 days, control 250.47 ± 5.01) is recorded as 243.14 ± 4.71 µg/lens Wet Weight (g). In addition, the “effect on polyol accumulation in rat lenses” value in the assay with rat lenses (conclusion statement) is on record as “prevented the accumulation of sorbitol in rat lenses”. The “IC50 (ABTS^+)” value in assay [3] was 6.53 ± 0.53 µg/mL (≈ 14.6 µM). Also, the “Inhibition (%) of ABTS^+” value turned out to be 17.87 ± 3.08% in assay [3] (1.67 µg/mL), 31.69 ± 4.94% in assay [3] (3.33 µg/mL) and 60.92 ± 2.81% in assay [3] (8.33 µg/mL).
